{
  "source": "patent US10738080B2",
  "about": "“Inhibitors of beta integrin-G protein alpha subunit binding interactions” (priority 2010, dated 2020)",
  "key": {"[1]": {"test_system": "mouse platelets", "experiment": "Mouse platelet spreading on immobilized fibrinogen", "format": "cell-based"}, "[2]": {"test_system": "RhoA", "details": "mouse platelets from siRNA-transfected stem cells", "method": "(FIG. 6B) Scrambled siRNA, Gα13 siRNA #1- and Gα13 siRNA #2-transfected platelets were allowed to adhere to immobilized fibrinogen for the indicated time, and analyzed for c-Src activation and RhoA activity.\n(§1) Platelets in modified Tyrode's buffer or adherent on immobilized fibrinogen were lysed quickly in 0.8 ml lysis buffer (50 mM Tris, pH 7.4, 10 mM MgCl2, 500 mM NaCl, 1% Triton X-100, 0.1% SDS, 0.5% deoxycholate, 10 μg/ml each of aprotinin and leupeptin, 1 mM phenylmethylsulfonyl fluoride, and 200 μM sodium vanadate). Lysates were cleared by centrifugation at 18,000 g for 2 minutes at 4° C., and the supernatant was incubated for 1 hour with 30 μg purified GST-Rhotekin RhoA-binding domain fusion protein (GST-RBD) bound to glutathione-Sepharose beads (S10). Samples were washed three times using washing buffer (50 mM Tris, pH 7.4, 10 mM MgCl2, 150 mM NaCl, 1% Triton X-100) and then immunoblotted with an anti-RhoA monoclonal antibody. Cell lysates were also immunoblotted with anti-RhoA as loading control."}, "[3]": {"test_system": "c-Src", "description": "Two different Gα13 siRNA target sequences were used: siRNA #1, 5′-[…] (SEQ ID NO: 56); siRNAi #2, 5′-[…] (SEQ ID NO: 57). Scrambled siRNA sequence is: 5′-[…]-3′ (SEQ ID NO: 58). These sequences are conserved in hamsters and mice. Lentivirus was prepared by co-transfection of pLL3.7-scrambled siRNA or pLL3.7-Gα13 siRNA (#1 and #2) with pLP1, pLP2 and pLP/VSVG plasmids (Invitrogen) into ˜90% confluent 293FT cells using Lipofectamine 2000. 48 hours after transfection, cell culture medium containing virus was filtered, titered and stored at −80° C. Bone manow cells from 6-8 week old healthy C57/BL mice were isolated aseptically from femurs and tibias. Stem cells were negatively selected by MACS Lineage cell depletion kit (Miltenyi Biotec) and cultured in RPMI 1640 complete medium with 10 ng/ml interleukin-3, 10 ng/ml interleukin-6, 10 ng/ml granulocyte-macrophage colony stimulating factor (GM-CSF), and 100 ng/ml stem cell factor (SCF). 50 multiplicity of infection (MOI) lenti-virus was used to infect mice bone marrow stem cells twice with 6 μg/ml polybrene. 48 hours after infection, 5×10^6 stem cells resuspended in PBS were transplanted by retrobulbar injection into lethally irradiated (10.5 Gy) C57/BL mice one day after irradiation (S11). The siRNA-resistant mutants of Gα13 were generated by PCR."}, "[4]": {"test_system": "human platelets", "format": "cell-based", "description": "The clots were photographed at various time points. […] Statistical significance was determined using t-test.\nStudies using human platelets were approved by institutional review board of University of Illinois at Chicago.\nCoverslides were pre-coated with 100 μg/ml fibrinogen and blocked with 5% BSA in PBS. 300 μl αIIbβ3-expressing CHO cells (expressing WT or mutant integrins; 1×10^5/ml) or platelets (1×10^7/ml) suspended in Tyrode's buffer were added to coverslides and incubated at 37° C. for various lengths of time. Cells were fixed with 4% paraformaldehyde (PFA) for 10 minutes and permeabilized with 0.1% Triton X-100 in PBS for 2 minutes. After blocking with 5% BSA for 10 minutes, coverslides were incubated with 0.2 μg/ml mAb 15, or Alexa Fluor-546 conjugated phalloidin. For mouse platelets re-express wild type β3 or the AAA mutant of β3, β3 was immuno-stained with the anti-β3 monoclonal antibody MAb 15 and Alexa Fluor-546 conjugated phalloidin. The slides were scanned with a Zeiss LSM5 10 META confocal microscope as previously described^11"}, "[5]": {"details": "C57BL/6 mice, FeCl3 carotid artery injury, compared to scrambled control ERAFEE", "method": "In this study, adult mice are anesthetized by intraperitoneal injection of pentobarbital (120 mg/kg). The left common carotid artery is surgically exposed and a miniature Doppler flow probe (Model 0.5VB; Transonic Systems, Ithaca, N.Y.) is placed on the surface of the artery. After adding 0.9% sodium chloride solution in the surgical wound to allow Doppler monitoring, baseline blood flow is recorded using a Transonic flowmeter. Thereafter, sodium chloride solution is removed and filter paper (round, 1.0 mm in diameter) saturated with 10% FeCl3 is applied to the surface of the carotid artery immediately proximal to the flow probe. After 3 minutes, the filter paper is removed, saline solution is again administered to the wound, and carotid blood flow is monitored. If occlusive thrombosis occurs to the injured carotid artery, blood flow is reduced to zero. ExE motif peptide micelles and controls are injected i.v. via the tail vein in C57BL/6 mice, then tested for occlusive thrombosis using this model."}, "[6]": {"test_system": "human platelets", "description": "Platelet aggregation assays were carried out as follows: Platelet aggregation and secretion was measured in a turbidometric platelet aggregometer (Chronolog) at 37° C. with stirring (1000 rpm). Washed platelets (3×10^8/ml) in modified Tyrode's buffer were stimulated with thrombin (Enzyme Research Laboratories). For talin knockdown platelet aggregation assay stimulated with manganese and ADP, manganese and ADP was mixed prior to experiment to achieve final concentration of 1 mM manganese and 5 μM ADP in reaction tube. Aggregation traces shown are representative of at least three independent experiments.\nPlatelet aggregation assays were performed with myristoylated peptide mP5, myristoylated peptide of SEQ: ID NO: 87, or their respective scarmbled control peptides, as essentially described herein. Briefly, washed human platelets were preincubated with 25, 50, 100, 250, or 500 μM peptide solubilized in DMSO."}, "[7]": {"test_system": "RhoA", "experiment": "RhoA activity assay (GST-RBD pull down) in platelets", "format": "cell-based, human", "details": "platelets stimulated with thrombin, 2 mM RGDS", "method": "as §1"}, "[8]": {"molecular_target": "T1, Gα13 binding to β3 (Homo sapiens, UniProt P05106+Q14344)", "T1 construct": "Proteins from platelet lysates were immunoprecipitated with control IgG or antibody to Gα13; The integrin αIIbβ3 was co-immunoprecipitated by anti-Gα13 antibody, but not control IgG, from platelet lysates; endogenous in cells; host or cells: washed human platelets (lysates)", "T1 sequence (Q14344 1-377)": "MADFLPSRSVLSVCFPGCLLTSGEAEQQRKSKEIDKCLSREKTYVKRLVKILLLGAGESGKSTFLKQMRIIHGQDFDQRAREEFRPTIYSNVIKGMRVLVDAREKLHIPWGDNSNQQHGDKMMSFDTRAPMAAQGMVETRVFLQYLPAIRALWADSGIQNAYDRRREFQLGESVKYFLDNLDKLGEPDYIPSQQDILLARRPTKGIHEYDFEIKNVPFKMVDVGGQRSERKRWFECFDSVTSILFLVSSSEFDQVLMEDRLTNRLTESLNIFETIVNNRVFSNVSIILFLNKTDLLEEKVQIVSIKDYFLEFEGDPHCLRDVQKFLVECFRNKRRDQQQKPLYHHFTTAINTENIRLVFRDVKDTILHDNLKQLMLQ", "T1 sequence (P05106 27-788)": "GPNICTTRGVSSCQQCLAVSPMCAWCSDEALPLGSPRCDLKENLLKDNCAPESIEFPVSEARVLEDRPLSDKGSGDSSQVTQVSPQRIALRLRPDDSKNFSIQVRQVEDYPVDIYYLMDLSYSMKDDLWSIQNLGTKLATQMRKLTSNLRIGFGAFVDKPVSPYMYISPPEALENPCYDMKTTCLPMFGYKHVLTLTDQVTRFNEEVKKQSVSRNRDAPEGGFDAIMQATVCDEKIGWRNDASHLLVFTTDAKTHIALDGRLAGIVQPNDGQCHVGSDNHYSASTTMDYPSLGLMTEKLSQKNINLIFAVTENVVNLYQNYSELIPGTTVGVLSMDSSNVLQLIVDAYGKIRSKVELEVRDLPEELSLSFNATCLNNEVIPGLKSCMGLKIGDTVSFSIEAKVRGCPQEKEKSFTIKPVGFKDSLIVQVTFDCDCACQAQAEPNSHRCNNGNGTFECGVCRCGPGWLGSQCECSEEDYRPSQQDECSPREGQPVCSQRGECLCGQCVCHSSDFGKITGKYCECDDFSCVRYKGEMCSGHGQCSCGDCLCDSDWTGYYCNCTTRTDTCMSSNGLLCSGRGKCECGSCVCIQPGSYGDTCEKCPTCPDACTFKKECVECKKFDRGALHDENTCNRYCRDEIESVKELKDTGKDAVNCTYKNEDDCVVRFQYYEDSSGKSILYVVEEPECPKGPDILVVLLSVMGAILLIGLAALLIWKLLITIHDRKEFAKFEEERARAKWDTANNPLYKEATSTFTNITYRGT", "experiment": "Co-immunoprecipitation of β3 with Gα13 from platelet lysates", "details": "platelets stimulated with thrombin, 2 mM RGDS", "description": "As previously described (S7), cell lysates were incubated with 2 μg/ml of D57 (antibody to integrin αIIbβ3), LJP3 (antibody against GPIb), or mouse IgG, and further incubated with protein G-conjugated Sepharose beads. Cell lysates were also incubated with rabbit anti-Gα13 IgG antibody (1.5 μg/ml) or an equal amount of rabbit IgG and further incubated with protein A-conjugated Sepharose beads. After 3-6 washes with lysis buffer, immunoprecipitates were analyzed by SDS-polyacrylamide gel electrophoresis and Western blots with antibodies against β3 (MAb15), GPIb (anti-IbαC (S8)) or Gα13. In some experiments, 1 μM GDP, 1 μM GTPγS or 30 μM AlF4^− were added to the reaction to assess the effect of Gα13 activation on integrin binding. In other experiments, 250 μM mSRI or scrambled control peptide was incubated with platelet lysates prior to immunoprecipitation. GST bead pull down analysis was previously described (S7). Purified Gα13 was incubated with glutathione beads-bound to GST, GST-β1CD or GST-β3 CD at 4° C. overnight. Bead-bound proteins were analyzed by immunoblotting. For GST-β3CD cDNA construction, integrin-β3 cytoplasmic domain (716-762) cDNA was generated by PCR and cloned into pGEX-4T2 vector using Bam HI and Xho I restriction sites. The forward primer is 5′-[…]-3′ (SEQ ID NO: 48); the reverse primer is 5′-[…]-3′ (SEQ ID NO: 49). For GST-I31CD cDNA construction, β1 cytoplasmic domain (752-798) cDNA was amplified by PCR and cloned into pGEX-4T1 vector using EcoRI and Xho I restriction sites. The primer sequences are: (1) forward: 5′-[…]-3′ (SEQ ID NO: 50); (2) reverse: […]-3′ (SEQ ID NO: 51). GST, GST-β1CD and GST-β3CD were purified from BL21 (DE3) E. coli using glutathione-conjugated beads.\nCell lysates were incubated with rabbit anti-Gα13 IgG (1.5 μg/ml), anti-integrin β3 rabbit serum (5 μl/ml) or an equal amount of rabbit IgG or pre-immune serum at 4° C. overnight, and subsequently with protein A-conjugated Sepharose beads for 1 hour. For the integrin β3 clustering experiment, human platelets (3×10^8) were stimulated with 0.025 U/ml α-thrombin for 2 minutes at room temperature (to avoid platelet aggregation) with or without 2 mM RGDS, then incubated with 5 μl anti-integrin β3 8053 rabbit serum at room temperature for 1 hour, and 5 μg goat anti-rabbit secondary antibody for another 1 hour. Platelets were then solubilized in modified RIPA Buffer. For the un-clustering control and pre-immune serum control, cells were solubilized in modified RIPA Buffer first, than incubated with 5 μl 8053 serum or pre-immune serum. After 3-6 washes with lysis buffer, immunoprecipitates were analyzed by SDS-polyacrylamide gel electrophoresis and Western blots using antibodies against β3, talin, or Gα13. In some experiments, 500 μM control or inhibitor peptides, mP5, mP7 and mP13 were incubated with platelet lysates prior to immunoprecipitation, or 2 mM RGDS was added into washed human platelets before stimulation by 0.025 U/ml α-thrombin. GST bead pull down analysis was previously described^8. Purified Gα13 or MBP-talin head were incubated with glutathione beads-bound to GST or GST-β3CD at 4° C. overnight. Bead-bound proteins were analyzed by immunoblotting."}},
  "data": [
    {"molecule": "5′-GGAGATCGACAAATGCCTG [Gα13 siRNA #2]", "values": [
      {"measurement": "platelet spreading", "setting": "[1]", "result": "inhibited"},
      {"measurement": "activation of RhoA", "setting": "[2]", "result": "accelerated"},
      {"measurement": "c-Src activation", "setting": "[3]", "result": "inhibited"}
    ]},
    {"molecule": "5′-GTCCACCTTCCTGAAGCAG [Gα13 siRNA #1]", "values": [
      {"measurement": "platelet spreading", "setting": "[1]", "result": "inhibited"},
      {"measurement": "activation of RhoA", "setting": "[2]", "result": "accelerated"},
      {"measurement": "c-Src activation", "setting": "[3]", "result": "inhibited"}
    ]},
    {"molecule": "C[C@@H](N)[C@H]1CC[C@H](C(=O)Nc2ccncc2)CC1", "note": "[Y27632, reference compound]", "values": [
      {"measurement": "inhibitory effect of Gα13 depletion on platelet spreading (reversal)", "setting": "[1]; Gα13-depleted mouse platelets", "result": "reversed"},
      {"measurement": "inhibitory effect of mP5 on platelet spreading (reversal)", "setting": "[4]; platelets treated with mP5", "result": "reversed"},
      {"measurement": "inhibitory effect of mSRI on platelet spreading (reversal)", "setting": "[4]; platelets treated with mSRI", "result": "reversed"}
    ]},
    {"molecule": "CC(=O)Oc1ccccc1C(=O)O", "note": "[aspirin, reference compound]", "values": [
      {"measurement": "platelet spreading on fibrinogen", "setting": "[1]; mouse platelets pre-incubated with 1 mM aspirin", "result": "did not affect"}
    ]},
    {"molecule": "FEEERA", "values": [
      {"measurement": "time to occlusion", "setting": "[5]", "result": "increased"},
      {"measurement": "inhibition of platelet aggregation, doses compared to the mP5 peptide", "setting": "[6]; 25-500 μM peptide in DMSO, 0.09 U/ml thrombin, washed human platelets", "result": "inhibit platelet aggregation at lower doses"},
      {"measurement": "concentration required for the maximal effect on in vitro platelet aggregation", "setting": "[6]; preliminary dose-dependent study, DMSO solution vs micellar formulation", "result": 250, "unit": "µM"}
    ]},
    {"molecule": "RGDS [reference compound]", "values": [
      {"measurement": "RhoA inhibition simultaneous with thrombin-stimulated Gα13-αIIbβ3 binding", "setting": "[7]", "result": "inhibited"},
      {"measurement": "Thrombin-stimulated binding of Gα13 to αIIbβ3", "setting": "[8]", "result": "inhibited"}
    ]}
  ]
}
